Experimental data taken from the NIST ThermoML archive (doi:10.1016/j.jct.2016.09.007).

Assay: xn = mol fraction of the nth substance listed
Details: 93.2 kPa, Liquid; for speed of sound: Frequency=3 MHz, Sing-around technique in a fixed-path interferometer; for mass density: Vibrating tube method

CCCC(=O)[O-].CCCC[NH3+] [n-butylammonium butanoate] + CCCCO
Details | mass density, 293.15 K [kg/m3] | mass density, 298.15 K [kg/m3] | mass density, 303.15 K [kg/m3] | mass density, 308.15 K [kg/m3] | mass density, 313.15 K [kg/m3] | speed of sound, 293.15 K [m/s] | speed of sound, 298.15 K [m/s] | speed of sound, 303.15 K [m/s] | speed of sound, 308.15 K [m/s] | speed of sound, 313.15 K [m/s]
x1 = 0.0305 | 817.522 | 813.696 | 809.839 | 805.95 | 802.02 | 1266.2 | 1249.1 | 1232 | 1215.2 | 1198.4
x1 = 0.053 | 822.696 | 818.886 | 815.044 | 811.168 | 807.257 | 1271.7 | 1254.5 | 1237.4 | 1220.5 | 1203.8
x1 = 0.101 | 833.099 | 829.318 | 825.508 | 821.665 | 817.785 | 1283.3 | 1266 | 1248.9 | 1231.9 | 1215
x1 = 0.1611 | 844.531 | 840.793 | 837.028 | 833.231 | 829.399 | 1296.3 | 1279 | 1261.8 | 1244.8 | 1227.9
x1 = 0.2022 | 851.656 | 847.949 | 844.213 | 840.451 | 836.653 | 1304.8 | 1287.5 | 1270.3 | 1253.2 | 1236.3
x1 = 0.2509 | 859.278 | 855.605 | 851.908 | 848.183 | 844.427 | 1314 | 1296.7 | 1279.5 | 1262.5 | 1245.6
x1 = 0.3027 | 866.842 | 863.204 | 859.543 | 855.853 | 852.119 | 1323.6 | 1306.3 | 1289.2 | 1272.1 | 1255.3
x1 = 0.3528 | 873.375 | 869.771 | 866.147 | 862.502 | 858.829 | 1332.3 | 1315 | 1297.9 | 1280.9 | 1264.1
x1 = 0.4053 | 879.699 | 876.13 | 872.54 | 868.931 | 865.297 | 1340.8 | 1323.5 | 1306.4 | 1289.5 | 1272.7
x1 = 0.449 | 884.611 | 881.064 | 877.503 | 873.925 | 870.321 | 1347.7 | 1330.5 | 1313.3 | 1296.4 | 1279.7
x1 = 0.4988 | 889.855 | 886.337 | 882.803 | 879.25 | 875.67 | 1355.4 | 1338.1 | 1321 | 1304.1 | 1287.4
x1 = 0.5505 | 894.968 | 891.475 | 887.969 | 884.447 | 880.9 | 1363.2 | 1345.9 | 1328.8 | 1311.9 | 1295.2
x1 = 0.6005 | 899.486 | 896.02 | 892.541 | 889.046 | 885.533 | 1370.4 | 1353 | 1335.9 | 1319 | 1302.3
x1 = 0.6491 | 903.634 | 900.198 | 896.744 | 893.273 | 889.785 | 1377.4 | 1359.9 | 1342.7 | 1325.8 | 1309.1
x1 = 0.6982 | 907.626 | 904.22 | 900.798 | 897.354 | 893.894 | 1384.5 | 1366.9 | 1349.6 | 1332.6 | 1316
x1 = 0.7456 | 911.277 | 907.896 | 904.501 | 901.087 | 897.65 | 1391.5 | 1373.7 | 1356.2 | 1339.1 | 1322.3
x1 = 0.7944 | 914.718 | 911.354 | 907.982 | 904.593 | 901.177 | 1398.7 | 1380.5 | 1362.8 | 1345.5 | 1328.7
x1 = 0.8462 | 918.325 | 914.961 | 911.608 | 908.243 | 904.86 | 1406.7 | 1388 | 1370 | 1352.5 | 1335.5
x1 = 0.8928 | 921.358 | 917.984 | 914.632 | 911.284 | 907.92 | 1414.2 | 1394.9 | 1376.5 | 1358.7 | 1341.5
x1 = 0.9463 | 924.512 | 921.173 | 917.809 | 914.461 | 911.112 | 1422.7 | 1402.7 | 1383.7 | 1365.5 | 1348
x1 = 1 | 928.794 | 925.509 | 922.217 | 918.88 | 915.567 | 1431.5 | 1410.3 | 1390.4 | 1371.5 | 1353.6
